Values joined by “and” are separate entries in the source; they are usually repeats but may differ in a detail not shown here. Equal values may be shown once. Read-outs that look alike come from different tables or passages of the source. One block for each molecule: values may come before it.
What was measured:
[1] = test system: luciferase reporter containing the UAG stop codon; experiment: Translational read-through luciferase reporter assay, UAG stop codon; format: cell-based; details: read-out: MaxFold Increase
From the text: This assay is described in detail in WO 01/44516 A2. This is a cell-based luciferase reporter assay designed to detect translational read-through via insertion of a translational stop codon within the luciferase coding sequence. In the presence of compounds that promote read-through of translational stop codons, active luciferase is produced and detected via chemiluminescence. We have shown that indoprofen analogs are active in two versions of this assay—one containing a UGA stop codon and one containing a UAG stop codon. The data in the table is from the luciferase reporter containing the UAG stop codon. This is the first stop codon downstream of the improper splice junction between exons 6 and 8 in the human SMN2 transcript.

[2] = test system: SMN2-linked luciferase-reporter gene construct; experiment: SMN splice reporter assay (SMN2-linked luciferase reporter, Example 10); format: cell-based; details: for maximal fold induction: read-out: SMN Splice Reporter Assay (Example 10) Avg MaxFold Increase
Summary of the method: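 Cervical carcinoma cells stably carrying an SMN2–luciferase splice reporter, in which luciferase is in frame only when SMN2 exon 7 is included, were treated with compound. Luciferase activity was read and expressed as fold increase over untreated transformed cells.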

[3] = test system: human GLT-1/EAAT-2 promoter; experiment: GLT-1/EAAT-2 promoter luciferase reporter assay in COS-7 cells; format: cell-based; details: COS-7 pE2P-GL3 (clone 4), 48 h; for maximal fold induction: Homo sapiens, normalized to DMSO control, read-out: Max Fold-Induction
Protocol: The astroglial glutamate transporter, GLT-1/EAAT-2, is responsible for the majority of glutamate transport in the brain and spinal cord. […] Results from each plate were normalized to the DMSO treated control wells and expressed as fold-induction. EC50 values were calculated using GraphPad Prism software.

[4] = test system: SMN-containing gems in fibroblast cells from a type 1 SMA patient (3813 cells); experiment: Gem count by immunohistochemistry in type 1 SMA patient fibroblasts (3813 cells); format: cell-based, human; details: for Number of gems per 100 nuclei, Treated Cells: 48 hours
From the text: SMN protein can be found in punctate nuclear particles called “gems” (Liu and Dreyfuss, EMBO J. 15(14): 3555-3565 (1996)). In fibroblast cells derived from SMA patients, the number of gems corresponds to disease severity as follows: severe type 1 patients have approximately 5 gems per 100 nuclei; mild type 3 patients have 20-50 gems per 100 nuclei; normal individuals have approximately 100-150 gems per 100 nuclei (Coovert et al., Hum Mol Genet 6(8): 1205-1214 (1997), Young et al., Exp Cell Res 265(2): 252-261 (2001)).
Following these methods, fibroblast cells from a type 1 SMA patient (3813 cells, Coriell Cell Repositories) were treated for 48 hours with the compounds indicated in Table 2 (reference number—structure correlation is provided in Table 1). The cells were then fixed and incubated with a monoclonal antibody against SMN (4B7, Wolstencroft et al., Hum Mol Genet 14:1199-1210 (2005)). A FITC-conjugated anti-mouse secondary antibody was used to visualize the labeled gems.

[5] = Plasma and brain pharmacokinetics in mice; format: in vivo, FVB or CD-1 mice; details: single dose; for Kp / half-life / AUC: mouse; for Kp: brain and plasma, read-out: Brain/Plasma Ratio
Protocol: Compounds were formulated in solution using the method of cosolvency as described by Lee et al., Int. J. Pharmaceutics, 253: 111-119 (2003). FVB or CD-1 mice, approximately 5 weeks old, were given a single dose of compound at the indicated concentration. Compounds were administered orally, with the exception of ALB-116638 and ALB-117573, which were administered IV. Three to five mice were euthanized at various times between 15 minutes and 24 hours after dosing and brain and plasma were harvested. Tissues were homogenized in acetonitrile and analyzed on an API 4000 LC/MS/MS system coupled with an Agilent 1100 series liquid chromatograph. All pharmacokinetic analyses were conducted using WinNonlin (Version 4.01; Pharsight, Palo Alto, Calif.) with the exception of brain/plasma ratios, which were calculated using Microsoft Excel 2000. AUC values are the area under the concentration-time curve from time zero to the last measured time point. The half life values are extrapolated from 3-4 time points taken at less than 4 hours after dosing.

SMN = experiment: Western blot of SMN in SMA type I fibroblasts (3813 cells); format: cell-based, human; details: 48 hours, DMSO = 1
Protocol: Westerns blots were performed using the methods of Mattis et al., Hum Genet 120:589-601(2006)). SMA type I fibroblasts (3813 cells; Coriell Cell Repositories) were treated with compounds for 48 hours. Monoclonal anti-SMN antibody 4B7 (Wolstencroft et al., Hum Mol Genet 14:1199-1210 (2005)) was used to identify SMN. Actin was used as an internal normalization standard and detected with an anti-actin polyclonal rabbit antibody (Sigma-Aldrich). Tobramycin was used for the positive control compound treatment. DMSO is the untreated negative control. Values are presented as the ratio of the signals obtained for SMN and Actin.

SMN protein = details: cited from earlier work
SMA model mouse fetuses = details: administered in utero; cited from earlier work
[6] = SMN2-linked luciferase reporter, average
[7] = maximum fold increase of reporter signal, average
[8] = brain, 5 mg/kg, oral, read-out: Brain T½ (converted)
[9] = plasma, 5 mg/kg, oral, read-out: Plasma T½ (converted)
[10] = SMN2-linked luciferase reporter, average maximum fold increase

EC50 [2, 6]: 6720 nM
EC50 [3]: 460 nM
Structure (SMILES): CC(C(N)=O)c1ccc(N2Cc3ccccc3C2=O)cc1 (stereo not shown) [ALB-112171]
maximal fold induction [1]: 2.2
maximal fold induction [2, 7]: 1.34
maximal fold induction [3]: 1.9

EC50 [2, 6]: 801 nM
EC50 [3]: 221 nM
Structure (SMILES): COc1ccc2c(c1)C(=O)N(c1ccc(C(C)C(=O)OC(C)(C)C)cc1)C2 (stereo not shown) [ALB-112354]
maximal fold induction [1]: 2
maximal fold induction [2, 7]: 1.46
maximal fold induction [3]: 1.93

EC50 [2, 6]: 83 nM
Brain AUC ([5]; 5 mg/kg, oral): 570.0 ng·h/g
Kp ([5]; 5 mg/kg, oral): 0.03
half-life [5, 8]: 2.6 h
AUC ([5]; plasma, 5 mg/kg, oral): 21100 ng·h/mL
half-life [5, 9]: 7.6 h
Structure (SMILES): COc1ccc2c(c1)C(=O)N(c1ccc(C(C)C(=O)O)cc1)C2 (stereo not shown) [ALB-112355]
maximal fold induction [1]: 2.7
Number of gems per 100 nuclei, Treated Cells ([4]; 0.45 μM): 5.3 gems per 100 nuclei
maximal fold induction [2, 7]: 1.85

EC50 [2, 6]: 49 nM
Structure (SMILES): CCCc1ccc2c(c1)C(=O)N(c1ccc(C(C)C(=O)O)cc1)C2 (stereo not shown) [ALB-113310]
maximal fold induction [1]: 3.7
Number of gems per 100 nuclei, Treated Cells ([4]; 3 μM): 53.5 gems per 100 nuclei
maximal fold induction [2, 7]: 2.1
SMN:Actin Ratio (SMN; 0.1 uM): 4.8
SMN:Actin Ratio (SMN; 1 uM): 6.2

EC50 [2, 6]: 6030 nM
EC50 [3]: 1270 nM
Structure (SMILES): CC(CN(C)C)c1ccc(N2Cc3ccccc3C2=O)cc1 (stereo not shown) [ALB-113968]
maximal fold induction [2, 7]: 1.37
maximal fold induction [3]: 1.78

EC50 [2, 6]: 81 nM
Structure (SMILES): COc1ccc2c(c1)C(=O)N(c1ccc(C(C)C)cc1)C2 [ALB-115069]
Number of gems per 100 nuclei, Treated Cells ([4]; 1 μM): 45.25 gems per 100 nuclei
maximal fold induction [2, 7]: 1.5
SMN:Actin Ratio (SMN; 0.1 uM): 4.3
SMN:Actin Ratio (SMN; 1 uM): 5.7

EC50 [2, 6]: 324 nM
Brain AUC ([5]; 5 mg/kg, oral): 553.8 ng·h/g
Brain AUC ([5]; 25 mg/kg, oral): 5950.9 ng·h/g
Kp ([5]; 5 mg/kg, oral): 51.7
Kp ([5]; 25 mg/kg, oral): 15
half-life [5, 8]: 0.6 h
half-life ([5]; brain, 25 mg/kg, oral, read-out: Brain T½ (converted)): 2.9 h
AUC ([5]; plasma, 5 mg/kg, oral): 10.7 ng·h/mL
half-life [5, 9]: 9.4 h
AUC ([5]; plasma, 25 mg/kg, oral): 397 ng·h/mL
half-life ([5]; plasma, 25 mg/kg, oral, read-out: Plasma T½ (converted)): 1.1 h
Structure (SMILES): COc1ccc2c(c1)C(=O)N(c1ccc(C(C)(C)C)cc1)C2 [ALB-115210]
maximal fold induction [1]: 2.9
maximal fold induction [2, 7]: 1.47

EC50 [2, 6]: 203 nM
Brain AUC ([5]; 5 mg/kg, oral): 163.8 ng·h/g
Kp ([5]; 5 mg/kg, oral): 3.43
half-life [5, 8]: 0.5 h
AUC ([5]; plasma, 5 mg/kg, oral): 47.8 ng·h/mL
half-life [5, 9]: 0.6 h
Structure (SMILES): CC(C)c1ccc(N2Cc3cc4c(cc3C2=O)OCCO4)cc1 [ALB-115498]
Number of gems per 100 nuclei, Treated Cells ([4]; 1 μM): 14.3 gems per 100 nuclei
maximal fold induction [2, 7]: 1.83
maximal fold induction [3]: 0.86

EC50 [2, 6]: 41 nM
Structure (SMILES): CC(C)c1ccc(N2Cc3ccc(N(C)C)cc3C2=O)cc1 [ALB-115806]
maximal fold induction [1]: 2
Number of gems per 100 nuclei, Treated Cells ([4]; 0.4 μM): 8 gems per 100 nuclei
maximal fold induction [2, 7]: 1.47
maximal fold induction [3]: 0.87

EC50 [2, 6]: 599 nM
Structure (SMILES): CC(C)c1ccc(N2Cc3ccc(OC(F)F)cc3C2=O)cc1 [ALB-116244]
maximal fold induction [1]: 2.8
Number of gems per 100 nuclei, Treated Cells ([4]; 0.1 μM): 44 gems per 100 nuclei
maximal fold induction [2, 10]: 1.57

EC50 [2, 6]: 50 nM
Structure (SMILES): CN(C)Cc1ccc(N2Cc3ccccc3C2=O)cc1 [ALB-116255]
maximal fold induction [2, 7]: 1.09
maximal fold induction [3]: 1.2

EC50 [2, 6]: 3560 nM
EC50 [3]: 6.79 nM
Structure (SMILES): COCC(C)c1ccc(N2Cc3cc4c(cc3C2=O)OCCO4)cc1 (stereo not shown) [ALB-116361]
maximal fold induction [2, 7]: 1.9
maximal fold induction [3]: 1.54

EC50 [2, 6]: 757 nM
Structure (SMILES): CC(C)c1ccc(N2Cc3ccc(NS(C)(=O)=O)cc3C2=O)cc1 [ALB-116486]
maximal fold induction [1]: 2.4
maximal fold induction [2, 10]: 1.49
maximal fold induction [3]: 1.17

EC50 [2, 6]: 78 nM
Brain AUC ([5]; 5 mg/kg, oral): 338.1 ng·h/g
half-life [5, 8]: 9.4 h
Structure (SMILES): COCc1ccc2c(c1)C(=O)N(c1ccc(C(C)C)cc1)C2 [ALB-116935]
maximal fold induction [1]: 1.9
maximal fold induction [2, 7]: 1.52

EC50 [2, 6]: 345 nM
Brain AUC ([5]; 5 mg/kg, IV): 64.5 ng·h/g
half-life ([5]; brain, 5 mg/kg, IV, read-out: Brain T½ (converted)): 7.4 h
Structure (SMILES): CC(C)c1ccc(N2Cc3ccc(NC(N)=O)cc3C2=O)cc1 [ALB-117573]
maximal fold induction [1]: 4.4
maximal fold induction [2, 10]: 1.67

melting point: 175 to 177 °C
Structure (SMILES): CCCc1ccc2c(c1)C(=O)N(c1ccc(C(C)C(=O)O)cc1)C2 (stereo not shown) [Example 2, 2-(4-(1-oxo-6-propylisoindolin-2-yl)phenyl)propanoic acid]

melting point: 116 to 118 °C
Structure (SMILES): COCC(C)c1ccc(N2Cc3ccc(OC)cc3C2=O)cc1 (stereo not shown) [Example 4, 6-methoxy-2-(4-(1-methoxypropan-2-yl)phenyl)isoindolin-1-one]

melting point: 206 to 209 °C
Structure (SMILES): CC(C)c1ccc(N2Cc3ccc(Cl)cc3C2=O)cc1 [Example 5, 6-chloro-2-(4-isopropylphenyl)isoindolin-1-one]

melting point: 225 to 227 °C
Structure (SMILES): CC(C)c1ccc(N2Cc3ccc([N+](=O)[O-])cc3C2=O)cc1 [Example 6, 2-(4-isopropylphenyl)-6-nitroisoindolin-1-one]

Structure (SMILES): CC(C(=O)O)c1ccc(N2Cc3ccccc3C2=O)cc1 (stereo not shown) [Indoprofen]
maximal fold induction [1]: 2.3
production of SMN from the endogenous SMN2 gene (SMN protein; SMA patient fibroblasts): increase in production of SMN
level of expression of SMN protein (SMN protein; cultured cells, Lunn et al. 2004): increases the level of expression of SMN protein
survival of SMA model mouse fetuses (SMA model mouse fetuses): increase survival
luciferase activity in SMN splice reporter assay ([2]; cervical carcinoma cell lines with SMN2-luciferase reporter): increases luciferase activity

Structure (SMILES): CCCC(CCC)C(=O)O [Positive Control, valproic acid, reference compound]
Number of gems per 100 nuclei, Positive Control ([4]; 1000 μM valproic acid, same patient fibroblasts): 31 gems per 100 nuclei and 38.7 gems per 100 nuclei

Structure (SMILES): NC[C@H]1O[C@H](O[C@H]2[C@H](O)[C@@H](O[C@H]3O[C@H](CO)[C@@H](O)[C@H](N)[C@H]3O)[C@H](N)C[C@@H]2N)[C@H](N)C[C@@H]1O [Tobramycin, reference compound]
SMN:Actin Ratio (SMN; 320 uM, positive control): 1.5

From US8110681B2, “Compounds for the treatment of spinal muscular atrophy and other uses” (The United States of America as represented by the …, priority 2006, dated 2012)
